Laboratory results published in ChEMBL document CHEMBL1157418, “Synthesis and antitumor activity evaluations of albumin-binding prodrugs of CC-1065 analog” (Bioorg Med Chem, 2008).
Active and inactive are the calls of the source. No cut-off for these calls is given here.

Tests used:
L1210 [1] = assay: Antitumor activity against mouse L1210 cells; format: functional, cell-based
L1210 [2] = assay: Antitumor activity in BDF1 mouse bearing mouse L1210 cells assessed as increase of life span at 0.4 mg/kg, iv; format: functional
[3] = Antitumor activity in BALB/c mouse bearing JC cells assessed as tumor growth inhibition at 0.16 mg/kg, iv daily 4 times for 3 days; format: functional; details: 72 h, read-out: TGI
L1210 [4] = assay: Cell cycle arrest in mouse L1210 cells by increase in accumulation at S phase at 0.01-0.1 ug/mL after 24 hrs by flow cytometry; format: functional, cell-based
L1210 [5] = assay: Antitumor activity in BDF1 mouse bearing mouse L1210 cells assessed as increase of life span at 0.2 mg/kg, iv; format: functional
L1210 [6] = assay: Antitumor activity against mouse L1210 cells assessed as inhibition of [3H]thymidine uptake after 48 hrs; format: functional, cell-based
[7] = Antitumor activity in BALB/c mouse bearing JC cells assessed as tumor growth inhibition at 0.25 mg/kg, iv daily 4 times for 2 days; format: functional; details: 48 h, read-out: TGI
L1210 [8] = assay: Antitumor activity in BDF1 mouse bearing mouse L1210 cells assessed as increase of life span at 0.05 mg/kg, iv; format: functional
MC-38 [9] = assay: Antitumor activity in BDF1 mouse bearing colon 38 cells assessed as maximum weight loss at 0.15 mg/kg, iv daily 4 times for 3 days; format: functional
SK-OV-3 [10] = assay: Anticancer activity in CD1 mouse xenografted with human SKOV3 cells assessed as tumor growth inhibition at 0.13 mg/kg, iv; format: functional; details: read-out: TGI
L1210 [11] = assay: Cell cycle arrest in mouse L1210 cells by accumulation at G2/M phase at 0.1 ug/ml after 24 hrs by flow cytometry; format: functional, cell-based
MC-38 [12] = assay: Antitumor activity in BDF1 mouse bearing colon 38 cells assessed as tumor growth inhibition at 0.15 mg/kg, iv daily 4 times for 3 days; format: functional; details: MC-38, 72 h, read-out: TGI
MC-38 [13] = assay: Antitumor activity in BDF1 mouse bearing colon 38 cells assessed as cell death at 0.15 mg/kg, iv daily 4 times for 3 days; format: functional
[14] = Antitumor activity in BALB/c mouse bearing JC cells assessed as cell death at 0.25 mg/kg, iv daily 4 times for 2 days; format: functional
L1210 [15] = assay: Cell cycle arrest in mouse L1210 cells by increase in accumulation at S phase at 0.1 ug/mL after 12 hrs by flow cytometry; format: functional, cell-based
MC-38 [16] = assay: Antitumor activity in BDF1 mouse bearing colon 38 cells assessed as tumor growth inhibition at 0.3 mg/kg, iv daily 4 times for 2 days; format: functional; details: MC-38, 48 h, read-out: TGI
SK-OV-3 [17] = assay: Anticancer activity in CD1 mouse xenografted with human SKOV3 cells assessed as weight change at 0.13 mg/kg, iv; format: functional
L1210 [18] = assay: Cell cycle arrest in mouse L1210 cells by increase in accumulation at G2/M phase at 0.01-0.1 ug/mL after 24 hrs by flow cytometry; format: functional, cell-based
[19] = Antitumor activity in BALB/c mouse bearing JC cells assessed as cell death at 0.16 mg/kg, iv daily 4 times for 3 days; format: functional
[20] = Antitumor activity in BALB/c mouse bearing JC cells assessed as maximum weight loss at 0.25 mg/kg, iv daily 4 times for 2 days; format: functional
[21] = Antitumor activity in BALB/c mouse bearing JC cells assessed as maximum weight loss at 0.16 mg/kg, iv daily 4 times for 3 days; format: functional
L1210 [22] = assay: Cell cycle arrest in mouse L1210 cells by increase in accumulation at S phase at 0.1 ug/mL after 3 hrs by flow cytometry relative to control; format: functional, cell-based
[23] = Antitumor activity in BALB/c mouse bearing JC cells assessed as maximum weight loss at 0.20 mg/kg, iv daily 4 times for 3 days; format: functional; details: dose 0.2 mg/kg
MC-38 [24] = assay: Antitumor activity in BDF1 mouse bearing colon 38 cells assessed as maximum weight loss at 0.3 mg/kg, iv daily 4 times for 2 days; format: functional
L1210 [25] = assay: Cell cycle arrest in mouse L1210 cells by decrease in accumulation at G1 phase at 0.01-0.1 ug/mL after 24 hrs by flow cytometry; format: functional, cell-based
[26] = Antitumor activity in BALB/c mouse bearing JC cells assessed as tumor growth inhibition at 0.20 mg/kg, iv daily 4 times for 3 days; format: functional; details: 72 h, read-out: TGI
[27] = Antitumor activity in BALB/c mouse bearing JC cells assessed as cell death at 0.20 mg/kg, iv daily 4 times for 3 days; format: functional; details: dose 0.2 mg/kg
SK-OV-3 [28] = assay: Antitumor activity against human SKOV3 cells assessed as inhibition of [3H]thymidine uptake after 72 hrs; format: functional, cell-based
L1210 [29] = assay: Cell cycle arrest in mouse L1210 cells by accumulation at S phase at 0.1 ug/ml after 24 hrs by flow cytometry; format: functional, cell-based
MC-38 [30] = assay: Antitumor activity in BDF1 mouse bearing colon 38 cells assessed as cell death at 0.3 mg/kg, iv daily 4 times for 2 days; format: functional
L1210 [31] = assay: Antitumor activity in BDF1 mouse bearing mouse L1210 cells assessed as increase of life span at 0.1 mg/kg, iv; format: functional
MC-38 [32] = assay: Antitumor activity in BDF1 mouse bearing colon 38 cells assessed as tumor growth inhibition at 100 mg/kg, iv daily 4 times for 3 days; format: functional; details: MC-38, 72 h, read-out: TGI
MC-38 [33] = assay: Antitumor activity in BDF1 mouse bearing colon 38 cells assessed as cell death at 100 mg/kg, iv daily 4 times for 3 days; format: functional
MC-38 [34] = assay: Antitumor activity in BDF1 mouse bearing colon 38 cells assessed as maximum weight loss at 100 mg/kg, iv daily 4 times for 3 days; format: functional
SK-OV-3 [35] = assay: Anticancer activity in CD1 mouse xenografted with human SKOV3 cells assessed as tumor growth inhibition at 5 mg/kg, iv; format: functional; details: read-out: TGI
SK-OV-3 [36] = assay: Anticancer activity in CD1 mouse xenografted with human SKOV3 cells assessed as weight change at 5 mg/kg, iv; format: functional
L1210 [37] = assay: Cell cycle arrest in mouse L1210 cells by accumulation at G2/M phase at 1 ug/ml after 12 hrs by flow cytometry; format: functional, cell-based
[38] = Antitumor activity in BALB/c mouse bearing JC cells assessed as maximum weight loss at 8.0 mg/kg, iv daily 4 times for 3 days; format: functional
[39] = Antitumor activity in BALB/c mouse bearing JC cells assessed as tumor growth inhibition at 8.0 mg/kg, iv daily 4 times for 3 days; format: functional; details: 72 h, read-out: TGI
[40] = Antitumor activity in BALB/c mouse bearing JC cells assessed as cell death at 8.0 mg/kg, iv daily 4 times for 3 days; format: functional
L1210 [41] = assay: Antitumor activity in BDF1 mouse bearing mouse L1210 cells assessed as increase of life span at 10 mg/kg, iv; format: functional
SK-OV-3 [42] = assay: Anticancer activity in CD1 mouse xenografted with human SKOV3 cells assessed as weight change at 25 mg/kg, ip; format: functional; details: route intraperitoneal
SK-OV-3 [43] = assay: Anticancer activity in CD1 mouse xenografted with human SKOV3 cells assessed as tumor growth inhibition at 25 mg/kg, ip; format: functional; details: SK-OV-3, ip, route intraperitoneal, read-out: TGI
MC-38 [44] = assay: Antitumor activity in BDF1 mouse bearing colon 38 cells assessed as tumor growth inhibition at 0.05 mg/kg, iv daily 4 times for 3 days; format: functional; details: MC-38, 72 h, read-out: TGI
MC-38 [45] = assay: Antitumor activity in BDF1 mouse bearing colon 38 cells assessed as cell death at 0.05 mg/kg, iv daily 4 times for 3 days; format: functional
MC-38 [46] = assay: Antitumor activity in BDF1 mouse bearing colon 38 cells assessed as maximum weight loss at 0.05 mg/kg, iv daily 4 times for 3 days; format: functional
MC-38 [47] = assay: Antitumor activity in BDF1 mouse bearing colon 38 cells assessed as cell death at 70 mg/kg, iv daily 4 times for 3 days; format: functional
MC-38 [48] = assay: Antitumor activity in BDF1 mouse bearing colon 38 cells assessed as tumor growth inhibition at 70 mg/kg, iv daily 4 times for 3 days; format: functional; details: MC-38, 72 h, read-out: TGI
MC-38 [49] = assay: Antitumor activity in BDF1 mouse bearing colon 38 cells assessed as maximum weight loss at 70 mg/kg, iv daily 4 times for 3 days; format: functional

SMILES: CC/C=C\C/C=C\C/C=C\C/C=C\C/C=C\C/C=C\CCC(=O)O [DOCONEXENT]
- IC50 (L1210 [1]): 13 nM

SMILES: O=C(CCCCCN1C(=O)C=CC1=O)Oc1cc2c(c3ccccc13)[C@H](CCl)CN2C(=O)c1cc2cc(NC(=O)c3cc4cc(F)ccc4[nH]3)ccc2[nH]1
- Activity (L1210 [2]): 133%
- inhibition in vivo at 0.16 mg/kg [3]: 93%
- Activity (L1210 [4]): Active
- Activity (L1210 [5]): 107%
- IC50 (L1210 [6]): 25 nM
- inhibition in vivo at 0.25 mg/kg [7]: 98%
- Activity (L1210 [8]): 40%
- Activity (MC-38 [9]): -10%
- inhibition in vivo at 0.13 mg/kg (SK-OV-3 [10]): 52%
- Activity (L1210 [11]): Active
- inhibition in vivo at 0.15 mg/kg (MC-38 [12]): 99%
- LCK (MC-38 [13]): 2.3
- LCK [14]: 2
- Activity (L1210 [15]): Active
- inhibition in vivo at 0.3 mg/kg (MC-38 [16]): 99%
- Activity (SK-OV-3 [17]): -3%
- Activity (L1210 [18]): Active
- LCK [19]: 1.5
- Activity [20]: -21%
- Activity [21]: -19%
- Activity (L1210 [22]): Active
- Activity [23]: -23%
- Activity (MC-38 [24]): -25%
- Activity (L1210 [25]): Active
- inhibition in vivo at 0.2 mg/kg [26]: 98%
- LCK [27]: 1.9
- IC50 (SK-OV-3 [28]): 34 nM
- Activity (L1210 [29]): Active
- LCK (MC-38 [30]): 2.6
- Activity (L1210 [31]): 51%

SMILES: CCc1c2c(nc3ccc(OC(=O)N4CCC(N5CCCCC5)CC4)cc13)C1CC3=C(COC(=O)[C@]3(O)CC)C(=O)N1C2 (stereo partly drawn)
- inhibition in vivo at 100 mg/kg (MC-38 [32]): 96%
- LCK (MC-38 [33]): 1.7
- Activity (MC-38 [34]): -7%

SMILES: Cc1c[nH]c2c1[C@@]13C[C@@H]1CN(C(=O)c1cc4cc(NC(=O)c5cc6ccccc6o5)ccc4[nH]1)C3=CC2=O
- Activity (L1210 [11]): Active
- Activity (L1210 [29]): Active

SMILES: CCCCCC(=O)O [HEXANOATE]
- IC50 (L1210 [1]): 4.6 nM

SMILES: COc1cccc2c1C(=O)c1c(O)c3c(c(O)c1C2=O)C[C@@](O)(C(=O)CO)C[C@@H]3O[C@H]1C[C@H](N)[C@H](O)[C@H](C)O1 [DOXORUBICIN]
- inhibition in vivo at 5 mg/kg (SK-OV-3 [35]): 39%
- Activity (SK-OV-3 [36]): -4%
- IC50 (L1210 [6]): 182 nM
- Activity (L1210 [37]): Active
- Activity [38]: -25%
- inhibition in vivo at 8 mg/kg [39]: 82%
- LCK [40]: 0.78
- Activity (L1210 [41]): 85%

SMILES: CC(=O)O[C@H]1C(=O)[C@@]2(C)[C@H]([C@H](OC(=O)c3ccccc3)[C@]3(O)C[C@H](OC(=O)[C@H](O)[C@@H](NC(=O)c4ccccc4)c4ccccc4)C(C)=C1C3(C)C)[C@]1(OC(C)=O)CO[C@@H]1C[C@@H]2O [PACLITAXEL]
- Activity (SK-OV-3 [42]): -1%
- inhibition in vivo at 25 mg/kg (SK-OV-3 [43]): 22%

SMILES: O=C(Nc1ccc2[nH]c(C(=O)N3C[C@@H](CCl)c4c3cc(O)c3ccccc43)cc2c1)c1cc2cc(F)ccc2[nH]1
- IC50 (L1210 [1]): 0.29 nM
- Activity (L1210 [4]): Active
- inhibition in vivo at 0.05 mg/kg (MC-38 [44]): 76%
- IC50 (L1210 [6]): 0.17 nM
- Activity (L1210 [11]): Active
- Activity (L1210 [15]): Active
- Activity (L1210 [18]): Active
- Activity (L1210 [22]): Active
- LCK (MC-38 [45]): 0.68
- Activity (MC-38 [46]): -7%
- Activity (L1210 [25]): Active
- IC50 (SK-OV-3 [28]): 14 nM
- Activity (L1210 [29]): Active

SMILES: O=c1[nH]cc(F)c(=O)[nH]1 [FLUOROURACIL]
- LCK (MC-38 [47]): 1.1
- inhibition in vivo at 70 mg/kg (MC-38 [48]): 95%
- Activity (MC-38 [49]): -7%
